Test [1] deals with DNCB-induced atopic dermatitis mice. The experiment in a line: DNCB-induced dermatitis mouse model, skin thickness. In kind it is in vivo, female BALB/C mice. Particulars: for reduction of the thickness of the dermis compared with Crisaborole / reduction of the thickness of the epidermis compared with Crisaborole / reduction of the thickness of the dermis compared with the compound Y5 / reduction of the thickness of the epidermis compared with the compound Y5: 50 mg/mL topical; for reduction of the thickness of the dermis compared with Crisaborole / reduction of the thickness of the epidermis compared with Crisaborole: statistical comparison vs Crisaborole group; for reduction of the thickness of the dermis compared with the compound Y5 / reduction of the thickness of the epidermis compared with the compound Y5: statistical comparison vs Y5 group; for Epidermal thickness / Dermis thickness: 50 mg/mL, 100 μL applied to back skin, 11 times once a day, Mean ± SD, n = 8; for Epidermal thickness: model 137.76, blank 48.93; for Dermis thickness: model 500.71, blank 194.70. Here is the method:
After female BALB/C mice are selected, each weighing 18-22 g, for animal adaptive breeding for 7 days, these are randomly divided into a blank group, a model group, a positive drug Crisaborole group, a hexadecadrol group, and compound groups, with 8 in each group. Except for the mice in the blank group, the remaining mice are applied with 100 μL of a 1% DNCB solution [acetone: olive oil=4:1 (V/V)] on the skin of the back of the shaved mice, and applied continuously for 3 days once a day. Then, dosing treatment starts 4 days after the mice are housed, and the test drug is applied to the back of each group of animals, wherein animals in the blank group and the model group are applied with a corresponding solvent, the positive drug Crisaborole group and hexadecadrol group are applied with 50 mg/mL of a corresponding drug, and the administration group is applied with 50 mg/mL of a corresponding compound, with 100 μL for each mouse; after application of 4 hours, 0.5% DNCB solution is applied for secondary challenge, and repeated administration and challenge treatment are performed 11 times, once a day. 24 hours after the last administration, the animals are sacrificed, and the back skins (1×0.4 cm^2) are taken and fixed in 10% formalin buffer to make pathological sections and perform HE staining; then, the epidermal and dermal layers are observed under a 100× […], and 5 areas are selected for detection of and recording the skin thickness, and then the average value is taken to represent the final thicknesses of the epidermal layer and dermal layer, respectively.

The target in a further test is T1, PDE4A enzyme (Homo sapiens, UniProt P27815).
T1 construct: GST (N); host or cells: Sf9 insect cells (baculovirus)
The experiment in a line: Inhibition of the activity of PDE4A enzyme (fluorescence polarization, Transcreener AMP2/GMP2). In kind it is biochemical. Particulars: 1 h, mean ± spread; for remaining activity at 0.01 µM: 0.01 μM compound; for remaining activity at 0.1 µM: 0.1 μM compound; for remaining activity at 1 µM: 1 μM compound. The protocol: The PDE4A enzyme expressed from baculovirus is labeled with N-terminal GST from Sf9 insect cells. A specified PDE4A enzyme and 1 mM cAMP are added to the newly prepared pH 7.5 Tris buffer, the enzyme solution is transferred into reaction wells, and the compound is sonicated in DMSO and then added to the enzyme solution for culturing for 10 minutes at room temperature; the substrate solution is poured into the reaction wells to initiate the reaction and cultured at room temperature for 1 hour, and a detection tracer (AMP2/GMP2 AlexaFluor 633 Tracer) and an antibody (Transcreener® AMP2/GMP2 Antibody) are added to stop the reaction for culturing for 90 minutes with gentle mixing. […]
(In general: Polarisation of emitted light reports the rotation of a fluorescent probe.)

Marks after values point to notes of the source that are not given here.

The term remaining activity denotes the signal under treatment as a percentage of the control signal. The low end stands for a large loss of activity, the high end for a small loss of activity.

T1 sequence (P27815 whole entry, species assumed): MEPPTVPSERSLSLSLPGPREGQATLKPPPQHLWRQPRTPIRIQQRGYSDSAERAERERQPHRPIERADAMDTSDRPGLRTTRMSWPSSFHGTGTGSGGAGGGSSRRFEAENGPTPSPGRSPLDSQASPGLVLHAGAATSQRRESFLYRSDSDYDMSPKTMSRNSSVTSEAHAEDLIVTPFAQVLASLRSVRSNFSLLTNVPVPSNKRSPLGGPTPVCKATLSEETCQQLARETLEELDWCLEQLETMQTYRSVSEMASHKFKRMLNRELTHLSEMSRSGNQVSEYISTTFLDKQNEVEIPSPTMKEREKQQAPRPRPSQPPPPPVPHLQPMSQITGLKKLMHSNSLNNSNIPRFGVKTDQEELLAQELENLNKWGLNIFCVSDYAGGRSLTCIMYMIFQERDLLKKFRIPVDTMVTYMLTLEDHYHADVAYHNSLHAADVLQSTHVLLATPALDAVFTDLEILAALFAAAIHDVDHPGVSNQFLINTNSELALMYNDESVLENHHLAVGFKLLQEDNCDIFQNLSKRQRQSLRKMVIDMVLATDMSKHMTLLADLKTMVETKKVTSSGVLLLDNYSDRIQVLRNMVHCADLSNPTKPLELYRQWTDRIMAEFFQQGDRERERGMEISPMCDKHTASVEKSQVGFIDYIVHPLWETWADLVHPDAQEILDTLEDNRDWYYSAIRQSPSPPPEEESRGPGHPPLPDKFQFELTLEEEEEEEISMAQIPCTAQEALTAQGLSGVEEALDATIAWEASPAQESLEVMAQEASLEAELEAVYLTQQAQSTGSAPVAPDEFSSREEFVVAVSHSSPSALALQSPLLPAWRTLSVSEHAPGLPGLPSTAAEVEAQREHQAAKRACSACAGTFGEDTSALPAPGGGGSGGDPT

For `CC(=O)c1cccc2nc(Oc3ccc4c(c3)COB4O)ccc12` [PD-12], in test [1], the “reduction of the thickness of the dermis compared with Crisaborole” value is on record as “significantly reduce the thickness of the dermis of dermatitis mice (P≤0.01)”, the “reduction of the thickness of the epidermis compared with Crisaborole” value is recorded as “significantly reduce the thickness of the epidermis (P≤0.01)”, the “reduction of the thickness of the dermis compared with the compound Y5” value was “significantly reduce the thickness of the dermis of dermatitis mice (P≤0.01)” and the “reduction of the thickness of the epidermis compared with the compound Y5” value is on record as “significantly reduce the thickness of the epidermis (P≤0.01)”. For the same compound, in test [1], the Epidermal thickness amounted to 72.15 ± 8.57 aa μm and the Dermis thickness is 362.44 ± 25.78 ^a a μm. At PDE4A enzyme, this compound came in with a remaining activity at 0.01 µM of 22.1 ± 0.57%, a remaining activity at 0.1 µM of 6.2 ± 1.23% and a remaining activity at 1 µM of 3.46 ± 1.12%.
In test [1], `NC(=O)c1ccc2nc(Oc3ccc4c(c3)COB4O)ccc2c1` [PD-13] yielded an Epidermal thickness of 100.23 ± 11.62 μm and a Dermis thickness of 450.26 ± 25.55 μm. At PDE4A enzyme, the remaining activity at 0.01 µM turned out to be 21.7 ± 1.51%, the remaining activity at 0.1 µM came out at 8.68 ± 0.89% and the remaining activity at 1 µM was found to be 1.44 ± 0.4%.
`CC(=O)c1ccc2nc(Oc3ccc4c(c3)COB4O)ccc2c1` [PD-14]: in test [1], the “reduction of the thickness of the dermis compared with Crisaborole” value is listed as “significantly reduce the thickness of the dermis of dermatitis mice (P≤0.01)”, the “reduction of the thickness of the epidermis compared with Crisaborole” value is reported as “significantly reduce the thickness of the epidermis (P≤0.01)”, the “reduction of the thickness of the dermis compared with the compound Y5” value is recorded as “significantly reduce the thickness of the dermis of dermatitis mice (P≤0.01)” and the “reduction of the thickness of the epidermis compared with the compound Y5” value is recorded as “significantly reduce the thickness of the epidermis (P≤0.01)”. Moreover, in test [1], the Epidermal thickness is listed as 75.24 ± 7.98 aa μm and the Dermis thickness is recorded as 365.40 ± 21.95 ^a a μm. In addition, at PDE4A enzyme, the remaining activity at 0.01 µM came to 3.57 ± 1.08%, the remaining activity at 0.1 µM was determined as 1.26 ± 1.17% and the remaining activity at 1 µM amounted to 0.15 ± 0.1%.
Turning to `OB1OCc2cc(Oc3ccc4cc(C(F)(F)F)c(Cl)cc4n3)ccc21` [PD-15], in test [1], the “reduction of the thickness of the dermis compared with Crisaborole” value is reported as “significantly reduce the thickness of the dermis of dermatitis mice (P≤0.01)”, the “reduction of the thickness of the epidermis compared with Crisaborole” value is given as “significantly reduce the thickness of the epidermis (P≤0.01)”, the “reduction of the thickness of the dermis compared with the compound Y5” value is reported as “significantly reduce the thickness of the dermis of dermatitis mice (P≤0.01)” and the “reduction of the thickness of the epidermis compared with the compound Y5” value is reported as “significantly reduce the thickness of the epidermis (P≤0.01)”. Moreover, in test [1], the Epidermal thickness is recorded as 74.28 ± 8.26**^##aa μm and the Dermis thickness was 376.62 ± 23.73 ^a a μm. At PDE4A enzyme, this compound showed a remaining activity at 0.01 µM of 2.09 ± 0.99%, a remaining activity at 0.1 µM of 0.54 ± 0.5% and a remaining activity at 1 µM of 1.08 ± 0.4%.
Turning to `N#Cc1cc2ccc(Oc3ccc4c(c3)COB4O)nc2cc1Cl` [PD-16], in test [1], the “reduction of the thickness of the dermis compared with Crisaborole” value is recorded as “significantly reduce the thickness of the dermis of dermatitis mice (P≤0.01)”, the “reduction of the thickness of the epidermis compared with Crisaborole” value is “significantly reduce the thickness of the epidermis (P≤0.01)”, the “reduction of the thickness of the dermis compared with the compound Y5” value is on record as “significantly reduce the thickness of the dermis of dermatitis mice (P≤0.05)” and the “reduction of the thickness of the epidermis compared with the compound Y5” value is given as “significantly reduce the thickness of the epidermis (P<0.05)”. In test [1], this compound returned an Epidermal thickness of 78.64 ± 9.75 a μm and a Dermis thickness of 388.46 ± 24.06 a μm. Further, at PDE4A enzyme, the remaining activity at 0.01 µM came out at 1.05 ± 1.26%, the remaining activity at 0.1 µM amounted to 0.45 ± 0.3% and the remaining activity at 1 µM is 0.21 ± 0.57%.
In the case of `OB1OCc2cc(Oc3cc(C(F)(F)F)c4cc(C(F)(F)F)ccc4n3)ccc21` [PD-17], in test [1], the “reduction of the thickness of the dermis compared with Crisaborole” value was “significantly reduce the thickness of the dermis of dermatitis mice (P≤0.01)”, the “reduction of the thickness of the epidermis compared with Crisaborole” value was “significantly reduce the thickness of the epidermis (P≤0.01)”, the “reduction of the thickness of the dermis compared with the compound Y5” value is given as “significantly reduce the thickness of the dermis of dermatitis mice (P≤0.01)” and the Epidermal thickness amounted to 80.76 ± 10.51 μm. The Dermis thickness in test [1] is given as 380.74 ± 20.15 ^a a μm. At PDE4A enzyme, this compound registered a remaining activity at 0.01 µM of 4.17 ± 0.99%, a remaining activity at 0.1 µM of 1.89 ± 0.6% and a remaining activity at 1 µM of 0.77 ± 0.39%.
On to `COC(=O)c1ccc2nc(Oc3ccc4c(c3)COB4O)cc(C(F)(F)F)c2c1` [PD-18], for which, in test [1], the Epidermal thickness came out at 90.35 ± 11.20 μm and the Dermis thickness worked out at 436.16 ± 35.42 μm. For the same compound, at PDE4A enzyme, the remaining activity at 0.01 µM was found to be 1.52 ± 0.44%, the remaining activity at 0.1 µM is 0.46 ± 0.35% and the remaining activity at 1 µM was determined as 0.13 ± 0.06%.
`CC(=O)c1ccc2nc(Oc3ccc4c(c3)COB4O)cc(C(F)(F)F)c2c1` [PD-19]: in test [1], the Epidermal thickness stood at 96.05 ± 9.75 μm and the Dermis thickness was found to be 441.12 ± 30.17 μm. On PDE4A enzyme, this compound registered a remaining activity at 0.01 µM of 4.22 ± 0.86%, a remaining activity at 0.1 µM of 1.56 ± 0.48% and a remaining activity at 1 µM of 0.54 ± 0.47%.
For the compound `COC(=O)c1ccc2nc(Oc3ccc4c(c3)COB4O)cc(F)c2c1` [PD-20], in test [1], the Epidermal thickness came out at 98.74 ± 10.55 μm and the Dermis thickness is 438.14 ± 29.71 μm. Besides, on PDE4A enzyme, the remaining activity at 0.01 µM is 6.13 ± 0.93%, the remaining activity at 0.1 µM was determined as 3.64 ± 0.48% and the remaining activity at 1 µM worked out at 1.78 ± 0.5%.
With `OB1OCc2cc(Oc3cc(F)c4cc(C(F)(F)F)ccc4n3)ccc21` [PD-21], in test [1], the “reduction of the thickness of the dermis compared with Crisaborole” value is recorded as “significantly reduce the thickness of the dermis of dermatitis mice (P≤0.01)”, the “reduction of the thickness of the epidermis compared with Crisaborole” value is reported as “significantly reduce the thickness of the epidermis (P≤0.01)”, the “reduction of the thickness of the dermis compared with the compound Y5” value is on record as “significantly reduce the thickness of the dermis of dermatitis mice (P≤0.05)” and the “reduction of the thickness of the epidermis compared with the compound Y5” value is listed as “significantly reduce the thickness of the epidermis (P≤0.01)”. Moreover, in test [1], the Epidermal thickness was 70.62 ± 7.12 ^aa μm and the Dermis thickness was 383.34 ± 24.40**^##a μm. Moreover, at PDE4A enzyme, the remaining activity at 0.01 µM was 1.64 ± 0.55%, the remaining activity at 0.1 µM came to 0.33 ± 0.23% and the remaining activity at 1 µM was determined as 0.28 ± 0.14%.
Take `N#Cc1ccc2nc(Oc3ccc4c(c3)COB4O)cc(F)c2c1` [PD-22]: in test [1], the Epidermal thickness was found to be 103.45 ± 11.74 μm and the Dermis thickness is 447.77 ± 33.37 μm. At PDE4A enzyme, the remaining activity at 0.01 µM was 7.16 ± 1.04%, the remaining activity at 0.1 µM was 3.06 ± 0.27% and the remaining activity at 1 µM was found to be 1.78 ± 0.63%.
With `OB1OCc2cc(Oc3ccc4cc(C(F)(F)F)ccc4c3)ccc21` [PD-23], in test [1], the Epidermal thickness came to 97.34 ± 8.36 μm and the Dermis thickness is recorded as 435.56 ± 27.08 μm. At PDE4A enzyme, this compound yielded a remaining activity at 0.01 µM of 9.26 ± 0.73%, a remaining activity at 0.1 µM of 4.51 ± 0.94% and a remaining activity at 1 µM of 2.45 ± 0.76%.
In the case of `COC(=O)c1cccc2cc(Oc3ccc4c(c3)COB4O)ccc12` [PD-24], in test [1], the “reduction of the thickness of the dermis compared with Crisaborole” value is recorded as “significantly reduce the thickness of the dermis of dermatitis mice (P≤0.05)”, the “reduction of the thickness of the epidermis compared with Crisaborole” value is “significantly reduce the thickness of the epidermis of the dermatitis mice (P≤0.05)”, the Epidermal thickness amounted to 91.17 ± 9.03 μm and the Dermis thickness stood at 420.33 ± 24.75 μm. Besides, on PDE4A enzyme, the remaining activity at 0.01 µM amounted to 9.17 ± 1%, the remaining activity at 0.1 µM was found to be 7.31 ± 1.16% and the remaining activity at 1 µM is 2.64 ± 0.56%.

(Values after US11161860B2, “Compound having effects of inhibiting phosphodiesterase 4, preparation method thereof and pharmaceutical use thereof” (Hefei Industrial Pharmaceutical Institute Co., Ltd., priority 2018, dated 2021).)
